Columns and labels:
Type in all cases: binding
[1] = biological target: T1, N-terminal CRD of hGalectin-4 (Gal-4N) (Homo sapiens, UniProt P56470); experiment: 1H-15N HSQC NMR-based titrations (chemical shift perturbation) of 15N-labeled Gal-4N
T1 construct: N-terminal CRD of hGalectin-4 (amino acids 1–150, including an additional C-terminus His-Tag); His-Tag (C, cleaved yes); made in house; host or cells: E. coli BL21 (pET29b)
T1 sequence (P56470 1-150): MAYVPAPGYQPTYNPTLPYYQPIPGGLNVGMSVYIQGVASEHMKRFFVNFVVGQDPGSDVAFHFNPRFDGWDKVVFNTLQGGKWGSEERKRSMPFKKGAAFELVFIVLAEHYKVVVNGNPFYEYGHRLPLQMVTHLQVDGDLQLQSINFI
Description: The molecular recognition event was also analyzed from the perspective of the lectin. Thus, a chemical shift perturbation (CSP) analysis of the changes produced in the ^1H-^15N HSQC spectra recorded for ^15N-labeled Gal-4N upon addition of the different ligands was carried out. This analysis required the NH backbone NMR assignment of the lectin signals, following well-established triple resonance 3D NMR methods (see Materials and methods and Supplementary Information). The assignment protocol allowed assigning 80% of the NH backbone resonances. In addition to the ligands shown in Scheme 1, the corresponding non-fucosylated analogs and the H antigens (devoid of the terminal Gal/GalNAc moieties, see Supplementary Information), as well as lactose, were also employed. Thus, a full comparative analysis on the monosaccharide-specific effects on the lectin CSP was achieved.
The total volume for the NMR samples was 500/μl. The lectin was in phosphate-buffered saline (50 mM sodium phosphate, 150 mM NaCl, pH 7.4), either in D2O or 90:10 H2O:D2O depending on the NMR experiment. The pH was adjusted with the required amount of NaOH and HCl or NaOD and DCl.
experiments were acquired using an 800 MHz Bruker spectrometer with a cryoprobe (Bruker, Billerica, MA, United States). The samples were prepared using 50 μM of the ^15N-labeled lectin in the corresponding buffer in a 90:10 H2O:D2O ratio. The experiments were performed at 298 K. Six to nine points were recorded for each ligand and CSP and KD were calculated using CcpNmr Analysis 2.4.2.

[2] = biological target: T1, N-terminal CRD of hGalectin-4 (Gal-4N); experiment: Isothermal titration calorimetry (ITC)
Description: Isothermal titration calorimetry experiments were performed using the MicroCal PEAQ-ITC calorimeter (Malvern Panalytical, Malvern, United Kingdom). Samples containing 100–200 μM of Gal-4N in PBS (50 mM sodium phosphate, pH 7.4, 300 mM NaCl) were titrated with stocks of 3–10 mM in PBS of glycans 4, 5, 7, 8, 9, and 11. During the automated experiment, small aliquots (2–3 μL) of the sugar stocks were added to the cell containing the lectin. Curve fitting to a single binding site model was performed with the MicroCal Origin 7 software.
Isothermal titratrion calorimetry (ITC). Isothermal Titration Calorimetry experiments were performed using MicroCal PEAQ-ITC calorimeter. Samples containing 100-200 µM of Gal-4N in PBS (50 mM sodium phosphate pH 7.4, 300 mM NaCl) were titrated with stocks of 3-10 mM in PBS of glycans A type 1, A type 2, A type 6, B type 1, B type 2 and B type 6. During the automated experiment, small aliquots (2-3 µL) of the sugar stocks were added to the cell containing the lectin. The association constants and the thermodynamic profile of the binding was calculated from the fitting of the titration data to a single binding site model.

[3] = biological target: T1, N-terminal CRD of hGalectin-4 (Gal-4N); experiment: 1H Saturation Transfer Difference (STD) NMR epitope mapping
Description: ^1H-saturation transfer difference NMR spectra were acquired for mixtures of Gal-4N (50 μM) with a 50-fold excess of ligand. Protein aromatic irradiation afforded the best STD intensities and thus these are discussed henceforth. The STD NMR spectra were very similar among the different ligands with respect to both the observed glycan protons and their intensities. […] Severe proton overlapping precluded a full comparison among ligands, but key isolated ^1H NMR resonance signals permitted to highlight evident differences.
All the STD NMR experiments were performed using an 800 MHz Bruker spectrometer with a cryoprobe (Bruker, Billerica, MA, United States). The samples were prepared in the corresponding deuterated buffer. The temperature was 288 K for every experiment. An amount of 50 μM of the lectin with 50 equivalents of the ligand was employed for every experiment except for lactose, for which a 1:70 ratio was used. The STD spectra were acquired with 1,024 scans, 2 s of saturation time using a train of 50 ms Gaussian-shaped pulses, and 3 s of relaxation delay. The spin-lock filter applied to remove the signals of the lectin was set at 40 ms. The on-resonance frequency was set for the aromatic region at 6.58 ppm, while the off-resonance frequency was set at 100 ppm.
Supplementary Table S1. Relative STD-AF (Amplification factor) and STD percentage of each non overlapping proton of each ligand.

## OC[C@H]1O[C@@H](O[C@H]2[C@H](O)[C@@H](O)C(O)O[C@@H]2CO)[C@H](O)[C@@H](O)[C@H]1O (mixture of isomers) [Lactose]
[1]; NMR titration, read-out: KD
  Kd: 1600 µM

## CC(=O)N[C@@H]1[C@@H](O[C@@H]2O[C@H](CO)[C@H](O)[C@H](O[C@H]3O[C@H](CO)[C@H](O)[C@H](O)[C@H]3NC(C)=O)[C@H]2O[C@@H]2O[C@@H](C)[C@@H](O)[C@@H](O)[C@@H]2O)[C@H](O)[C@@H](CO)O[C@H]1O [A type-1 (tetra)]
[2]
  -TΔS (kcal mol^–1) (ITC): 1.0 kcal mol^–1
  ΔG (kcal mol^–1) (ITC): −4.9 kcal mol^–1
  ΔH (kcal mol^–1) (ITC): −5.9 kcal mol^–1
[2]; PBS pH 7.4, single binding site model
  Kd: 267 µM

## CC(=O)N[C@H]1[C@@H](O[C@H]2[C@@H](O)[C@@H](CO)O[C@@H](O[C@H]3[C@@H](O)[C@@H](CO)O[C@@H](O[C@@H]4[C@@H](O)[C@H](O)O[C@H](CO)[C@@H]4O)[C@@H]3NC(C)=O)[C@@H]2O[C@@H]2O[C@@H](C)[C@@H](O)[C@@H](O)[C@@H]2O)O[C@H](CO)[C@H](O)[C@@H]1O [A type-4 (penta)]
[3]; 1H-residue H1GalNAc
  STD%: 95%
[3]; 1H-residue H1GalNAc, 50:1 ligand:lectin, 288 K
  STD-AF: 0.0145
[3]; 1H-residue H1Galβ
  STD%: 61%
  STD-AF: 0.0092
[3]; 1H-residue H2Galβ
  STD%: 36%
  STD-AF: 0.0054
[3]; 1H-residue H3GalNAc
  STD%: 28%
  STD-AF: 0.0043
[3]; 1H-residue H3GalNAcb
  STD%: 15%
  STD-AF: 0.0023
[3]; 1H-residue H3Galβ
  STD%: 21%
  STD-AF: 0.0032
[3]; 1H-residue H4GalNAcb
  STD%: 24%
  STD-AF: 0.0036
[3]; 1H-residue H4Galβ
  STD%: 71%
  STD-AF: 0.0108
[3]; 1H-residue H5Galβ
  STD%: 100%
  STD-AF: 0.0152
[3]; 1H-residue MetFuc
  STD-AF: 0.0012
[3]; 1H-residue NHAc GalNAc
  STD%: 68%
  STD-AF: 0.0104
[1]; HSQC NMR-based titration, 50 μM 15N-labeled lectin, 298 K, read-out: KD (μM) (NMR)
  Kd: 1380 µM

Reference: PMC8097242, “Galectin-4 N-Terminal Domain: Binding Preferences Toward A and B Antigens With Different Peripheral Core Presentations” (Frontiers in Chemistry, 2021)
